Measurements reported in PubChem BioAssay (NCI).
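In this assay, cells in 96-well plates receive the compound at five concentrations for 48 hours. Endpoints are linearly interpolated between the surrounding concentrations. The concentration for full growth arrest is given as TGI.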 Where a SMILES comes first, the peptide text is derived from it.

What was measured:
Test in all cases: NCI anticancer screen, dose series, 48 h
[1] = system: 786-0 renal
[2] = system: ACHN renal
[3] = system: EKVX NSCLC
[4] = system: HCC-2998 colon
[5] = system: HOP-62 NSCLC
[6] = system: HOP-92 NSCLC
[7] = system: KM12 colon
[8] = system: NCI-H522 lung
[9] = system: OVCAR-3 ovarian
[10] = system: OVCAR-8 ovarian
[11] = system: SK-OV-3 ovarian
[12] = system: SN12C renal
[13] = system: SW-620 colon
[14] = system: UACC-257 melanoma
[15] = system: MCF7 breast
[16] = system: MDA-MB-231 breast
[17] = system: SF-295 CNS
[18] = system: SF-539 CNS
[19] = system: SK-MEL-2 melanoma
[20] = system: HS 578T breast

SMILES | TGI [1] [µM] | TGI [2] [µM] | TGI [3] [µM] | TGI [4] [µM] | TGI [5] [µM] | TGI [6] [µM] | TGI [7] [µM] | TGI [8] [µM] | TGI [9] [µM] | TGI [10] [µM] | TGI [11] [µM] | TGI [12] [µM] | TGI [13] [µM] | TGI [14] [µM] | TGI [15] [µM] | TGI [16] [µM] | TGI [17] [µM] | TGI [18] [µM] | TGI [19] [µM] | TGI [20] [µM]
CC(=O)c1ccc(NC(=O)C(=O)C(C(=O)c2ccc(Cl)c(Cl)c2)C2OC(=O)c3ccccc32)cc1 (configuration not stated) | 33.8 | 45.5 | > 100 | 26.9 | 45.3 | 78.4 | 38.1 | 22.1 | 42.6 | 27.6 | > 100 | 59.9 | > 100 | > 100 |  |  |  |  |  | 
O=Nc1sc(=N\O)/c(=N/O)sc1NO | > 100 | > 100 | > 100 | > 100 | > 100 | > 100 | > 100 | > 100 | > 100 | > 100 | > 100 | > 100 | > 100 | > 100 | > 100 | > 100 | > 100 | > 100 | > 100 | 
CC1=CC(=O)C(=CN2C(=O)/C(=C\c3cccnc3)NC2=S)C(=O)O1 | > 100 | > 100 | > 100 | > 100 | > 100 | > 100 | > 100 |  | > 100 | > 100 | > 100 | > 100 | > 100 | > 100 | > 100 | > 100 | > 100 | > 100 | > 100 | 
CC(C)[Si](OC1=C(C(=O)N(C)c2ccccc2Cl)CCCCC1)(C(C)C)C(C)C | > 100 | > 100 | > 100 |  | > 100 | > 100 | > 100 | > 100 | > 100 | > 100 | > 100 | > 100 | > 100 | > 100 |  | > 100 | > 100 | > 100 |  | 
CCOC1(OCC)N=C(N)C2(C#N)C3(C(=O)N(C(C)C)N=C3C)C12C#N (configuration not stated) | > 100 | > 100 | > 100 | > 100 | > 100 | > 100 | > 100 | > 100 | > 100 | > 100 | > 100 | > 100 | > 100 | > 100 | > 100 | > 100 | > 100 | > 100 | > 100 | 
CC1(C)CCCCCCC2CC2CCCCCC(C)(C)C1=O (configuration not stated) | > 100 | > 100 | > 100 |  | > 100 | > 100 | > 100 | > 100 | > 100 | > 100 | > 100 | > 100 | > 100 | > 100 |  | > 100 | > 100 | > 100 | > 100 | > 100
c1ccc(CN2CCCCC(Sc3ccccc3)CC2)cc1 (configuration not stated) | 31.6 | > 100 | > 100 | 29.8 | > 100 | 78.8 | > 100 |  | > 100 | > 100 | > 100 | 61.8 | 4.98 | > 100 |  |  | > 100 | 77.4 | 90.5 | 
CNC(=O)CNC(=O)C(NC(=O)CNC(=O)C1CCCN1C(=O)C(C)NC(=O)C(NC(C)=O)C(C)C)C(C)C (configuration not stated) (Ac-VAPGVG-NHMe; configuration not given here) | > 100 | > 100 | > 100 | > 100 | > 100 | > 100 |  | > 100 | > 100 | > 100 | > 100 | > 100 | > 100 | > 100 | > 100 | > 100 | > 100 | > 100 | > 100 | 
C=C(Br)C(C)(Br)CCC(Br)C(C)(C)Br (configuration not stated) | 44.5 | > 100 |  |  | 34.9 | 40.6 | > 100 | 28.3 |  | 33.3 | > 100 | 52.4 | 70.9 | > 100 |  |  | 62 | 38.8 | 55.7 | 
CCCCCNC(=O)c1c(O)[nH]c(=S)[nH]c1=O | > 100 | > 100 |  |  | > 100 | > 100 | > 100 | > 100 | > 100 | > 100 | > 100 | > 100 | > 100 | > 100 |  |  | > 100 | > 100 | > 100 | 
Cc1cc(O)c(C=NC(=S)c2ccccc2)c(=O)o1 | > 100 | > 100 | > 100 | > 100 | > 100 | > 100 | > 100 |  | > 100 | > 100 | > 100 | > 100 | > 100 | > 100 | > 100 | > 100 | > 100 | > 100 | > 100 | 
CC1=CC(=O)c2c(C=O)c(O)c(O)c(C(C)C)c2C1=O | 45.5 | 32.6 |  | > 94.5 | > 100 | 45.5 |  | 32.4 |  | > 56.5 | > 100 | > 100 |  |  |  |  |  | 58.4 | 57.5 | 
CN(C)C1(N(C)C)Oc2c(c(=O)n(C)c(=O)n2C)C(c2ccccc2Br)C1(F)F (configuration not stated) | > 100 | > 100 | > 100 | > 100 | > 100 | > 100 | > 100 |  | > 100 |  | > 100 |  | > 100 | > 100 | > 100 | > 100 | > 100 | > 100 | > 100 | 
